# Data: US9314444B2, “Composition and method for treatment of NASH” (BioKier Inc., priority 2009, dated 2016)
# Columns and labels:
# [1] = system: cell lines derived from L-cells; conditions: cited from earlier work
# L-cells in the colon = conditions: dosed orally and unformulated; cited from earlier work
# GLP-1 and PYY = test: Direct colonic delivery, secretion of gut hormones from the colon; type: in vivo; conditions: upper gut bypassed
# rat liver = conditions: butyrate formed from carbohydrates via fermentation in the rat colon; cited from earlier work
# GLP-1 = test: Colon delivered L-glutamine, GLP-1 secretion in human diabetic subjects; type: in vivo
SMILES,secretion of gut hormones [1],minimum effective amount (L-cells in the colon) [grams],secretion of GLP-1 from the colon (GLP-1 and PYY),secretion of PYY from the colon (GLP-1 and PYY),fat in the rat liver (rat liver),toxic dose (L-cells in the colon) [grams],secretion of GLP-1 (GLP-1)
CCC(=O)O [propionic acid],induce secretion,30,increase,increase,–,–,–
CCCC(=O)O [butyric acid],induce secretion,30,increase,increase,reduces,–,–
NC(=O)CC[C@H](N)C(=O)O [L-glutamine],induce secretion,30,increase,increase,–,≥ 30,increased
